Laboratory results: patent publication US20210145830A1, “MATERIALS AND METHODS FOR TREATING CANCER” (Mayo Foundation for Medical Education and Research, priority 2018, published 2021)
Entries after “also recorded” stand apart in the source; their conditions may differ.

Assays:
[1] = tested on: p-LCK, p38MAPK, GATA-3, T-bet in CART19 cells; assay: Western blot of signaling molecules in stimulated CART19 cells; type: cell-based
Procedure: FIG. 24A-B. A. Western blot analysis of p-LCK inhibition by TP0903 in CART19 cells. CART19 cells were incubated with lethally irradiated JeKo-1 in the presence of TP0903 at a 1 to 3 ratio for 24 hours. After the incubation, CART19 cells were purified with anti-CD19 micro beads. […] B. Comparison of gene expression between TP0903 treated CART19 cells and non-treated CART19 cells subpopulations using RNA-seq. CART19 cells from three biological replicates were thawed and stimulated with irradiated JeKo-1 (120 Gy) for 5 days. Each sample was treated with either 30 nM TP0903 (treated condition) or DMSO (untreated condition). Representative flow cytometric analysis of CART19 cells before RNA isolation (right). RNA-seq was performed on an Illumina […] by the Genomic Sequencing Core at Mayo Clinic.

CART19 = CART19 cytokine release (Luminex) in the presence of TP0903; type: cell-based, human; details: for Th2 cytokines IL-4 and IL-5 / cytokine release syndrome (CRS) cytokines (MCP1, IL-6, IL-10, MIP-b): Jeko or CLL cells
Procedure: FIG. 7 contains an exemplary timeline for a cytokine assay in the presence of TP0903. UTDs or CART19 were incubated with Jeko in the presence of TP0903 in the 1 to 1 ratio. At day 3, supernatant was harvested and analyzed by 32-plex Luminex array.
FIG. 23. CART19 cytokine production in the presence of TP0903. CART19 cells or untransduced T cells were co-cultured with JeKo-1 cells or leukemic B cells derived from patients with chronic lymphocytic leukemia for 3 days and supernatants were analyzed for human cytokines (Luminex, 38-plex).
FIG. 27. CART19 cytokine production in the presence of TP-0903. CART19 cells or untransduced T cells were co-cultured with JeKo-1 cells (left heat map) or leukemic B cells (right heat map) derived from patients with chronic lymphocytic leukemia for 3 days, and supernatants were analyzed for human cytokines (Luminex, 38-plex).
Effector and target cells were incubated at a 1:1 ratio in T cell media for 24 or 72 hours as indicated. Supernatant was harvested and analyzed by 30-plex Luminex array according to the manufacturer's protocol (Millipore).
UTDs or CART19 were incubated with Jeko cell line or primary CLL cells in the presence of TP0903, at 1:1 ratio for 3 days (FIG. 7). At the end of the experiment, supernatant was harvested and analyzed for cytokines by 30-plex multiplex. […] TP0903 suppressed critical cytokines for the development of CRS after CART cell therapy (FIG. 10).

JeKo = assay: MCL (JeKo) xenograft in NSG mice with re-challenge; type: in vivo
Procedure: FIGS. 19A-F. A. Inhibitory receptors expression in naïve T cells after TCR activation with CD3 stimulation in the increasing dose of TP0903. Naïve T cells were incubated with anti CD3/CD28 beads at a 1 to 3 ratio in the presence of TP0903. At day 3, T cells were stained with PD-1, TIM-3, LAG-3, and ICOS. […] Teff cells were isolated by negative selection using Human T Cell Isolation Kit. Tregs were isolated by negative selection using the human CD4^+CD127^lowCD25^+ Treg isolation kit. Teff and Treg were stimulated with anti CD3/CD28 beads and 400 U/ml of IL-2. At day 5, total T cells were evaluated via CountBright quantification. C. CART19 cytokine assay in the presence TP0903. UTDs or CART19 were incubated with Jeko in the presence of TP-0903 at a 1 to 1 ratio. Supernatant was harvested and analyzed by 32-plex Luminex array after 3 days. D. Inhibitory receptors expression in CART19 cells in the presence TP0903. UTDs or CART19 were incubated with Jeko at a 1 to 1 E/T ratio in the presence of TP0903. At day 5, T cells were stained with PD-1 (left), LAG-3 (right), and TIM-3. E. CART19 cytotoxicity in the presence TP0903: CART19 or UTDs were co-cultured at different effector-to-target ratios (E:T) with luciferase-positive Jeko in the presence of increasing doses of TP0903. Cell killing was assessed by luminescence at 24 hours. F. TP0903 enhanced CART cell persistence in vivo. NSG mice were injected with 1.0×10^6 luciferase-positive JeKo on day −7. At day 0, mice were randomized according to tumor burden to receive vehicle, TP0903 20 mg/kg/day, […] CART19, or TP0903 20 mg/kg/day+0.5×10^6 CART19. At day 21, mice were re-challenged with JeKo.
FIG. 25A-E. Impact of the combinatory therapy in vivo. A. Schema for in vivo experiment. B and C. […] D. Reduction of MCP-1, which is known as CRS related cytokine in the presence of TP0903. E. Expansion of circulating CART19 after re-challenging Luciferase positive JeKo-1.
NOD-SCID-γ chain−/− (NSG) originally obtained from Jackson Laboratories were maintained in our laboratory under an IACUC approved breeding protocol. Schemas of the utilized xenograft models are discussed in detail in the relevant figures and the Results section. Cells were injected in 200 μL of phosphate-buffered saline at the indicated concentration into the tail veins of mice. Bioluminescent imaging was performed using a Xenogen IVIS-200 Spectrum camera. Images were acquired and analyzed using Living Image version 4.4 (Caliper LifeSciences, Inc., PerkinElmer).
To investigate the effect of AXL RTK inhibition of CART cells with TP0903 in vivo, MCL xenografts were established through the injection of 1.0×10^6 of JeKo into NSG mice. A week after the injection of JeKo, mice were treated with either vehicle alone, TP0903 (20 mg/kg/day) alone, 0.5×10^6 of CART19 alone, or TP0903 (20 mg/kg/day)+0.5×10^6 of CART19. Three weeks after the treatment, mice were rechallenged with 1.0×10^6 of JeKo.

[2] = CART19 + irradiated JeKo-1, 24 hours, highest dose
[3] = CART19 + irradiated JeKo-1, 24 hours, highest dose (65 nM)
[4] = 3 days, supernatant, listed as TP-0903

With `CN1CCN(Cc2ccc(Nc3ncc(Cl)c(Nc4ccccc4S(=O)(=O)N(C)C)n3)cc2)CC1` [TP0903] the GATA-3 [1, 2] was “inhibited”, the T-bet [1, 2] was “inhibited” and the “phosphorylation of LCK” value [1, 3] was “modest inhibition”. For the same compound, the “phosphorylation of p38MAPK” value [1, 3] was “modest inhibition”, the “phosphorylation of LCK” value ([1]; T cell lysates, CART19, Example 2 text) was “remarkably reduced” and the “CART Th1 specific cytokines (IFN-γ, TNF-α)” value (CART19; 1:1 with Jeko or primary CLL cells, 3 days, supernatant) was “only high doses (supra-physiological) suppressed; also recorded: maintains”. For the same compound, the IL-8 (CART19; JeKo-1 or CLL leukemic B cells, 3 days, Luminex 38-plex) was “downregulated”, the “cytokine production ability of IFN-γ, GM-CSF, TNF-α, and IL-2” value (CART19; JeKo-1 or CLL patient leukemic B cells, 3 days, Luminex 38-plex) was “maintained” and the “Th2 cytokines IL-4 and IL-5” value (CART19; 3 days, supernatant) was “suppresses; also recorded: significantly downregulated”. For the same compound, the “cytokine release syndrome (CRS) cytokines (MCP1, IL-6, IL-10, MIP-b)” value (CART19; 3 days, supernatant) was “suppresses; also recorded: reduction; also recorded: remarkably downregulated”, the “Th2 cytokines IL-4 and IL-5” value (CART19; [4]) was “significantly downregulated” and the “cytokine release syndrome (CRS) cytokines (MCP1, IL-6, IL-10, MIP-b)” value (CART19; [4]) was “remarkably downregulated”. For the same compound, the “Th polarization of CART cells” value (CART19; stimulated with JeKo or leukemic B cells from CLL patients) was “polarization of CART cells into a Th1 phenotype”, the “outcome of JeKo re-challenge” value (JeKo; TP0903 20 mg/kg/day + 0.5×10^6 CART19, re-challenge at three weeks) was “successfully rejected” and the “CART cell persistence in vivo” value (JeKo; TP0903 20 mg/kg/day + CART19) was “enhanced”. For the same compound, the tumor burden (JeKo; combination of CART19 and TP0903 vs CART19 monotherapy) was “superior low tumor burden”, the “circulating CART19” value (JeKo; combination, after re-challenging Luciferase positive JeKo-1) was “Expansion” and the “MCP-1 (CRS related cytokine)” value (JeKo; in vivo, in the presence of TP0903) was “Reduction”.
